Where “and” joins values, the source holds several entries; their conditions need not be identical. Identical values can stand only once. Like-named read-outs stand apart in the source and are kept apart here.
Experiments:
Assay type in all cases: biochemical
hCBS = target: T1, hCBS (Homo sapiens, UniProt P35520); assay: enzyme kinetics of hCBS inhibition
T1 construct: GST (N); made in house; host or cells: E. coli BL21
T1 sequence (P35520 1-551): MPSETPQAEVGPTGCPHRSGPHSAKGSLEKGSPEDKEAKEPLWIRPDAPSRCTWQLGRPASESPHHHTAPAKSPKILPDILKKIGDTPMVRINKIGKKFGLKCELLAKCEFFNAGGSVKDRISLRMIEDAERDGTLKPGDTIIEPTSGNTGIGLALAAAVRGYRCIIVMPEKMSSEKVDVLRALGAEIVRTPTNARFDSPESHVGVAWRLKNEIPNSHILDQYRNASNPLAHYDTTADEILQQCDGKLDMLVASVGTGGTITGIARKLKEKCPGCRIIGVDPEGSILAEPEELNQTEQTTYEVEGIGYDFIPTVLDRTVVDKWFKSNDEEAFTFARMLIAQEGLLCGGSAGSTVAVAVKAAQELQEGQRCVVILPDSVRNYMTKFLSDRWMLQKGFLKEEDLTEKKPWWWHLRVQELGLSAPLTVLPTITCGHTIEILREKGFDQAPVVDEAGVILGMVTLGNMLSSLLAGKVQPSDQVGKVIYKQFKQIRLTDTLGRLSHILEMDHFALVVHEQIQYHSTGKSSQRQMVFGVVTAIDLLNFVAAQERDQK
Protocol: Figure S2. The mode of action of CH004 in inhibiting hCBS. […] After incubation with DMSO or CH004 at 10 μM for 40 min, hCBS (20 μM) was diluted 200-fold and the activity was measured according to the standard assay protocol (Materials and Methods). The data are presented as percentages of control (CTR; DMSO, 100%) and shown as means ± SDs (n = 5). The effects of 0.05 and 10 μM CH004 on hCBS (100 nM) without pre-incubation were defined as positive control (PC) and negative control (NC), respectively. (B) Inhibition of hCBS by CH004 as a function of PLP concentration with Cys (20 mM) together with Hcys (10 mM) as substrates (non-competitive inhibition constant αKi=15.2 ± 4.9 μM). (C) Inhibition of hCBS by CH004 as a function of Cys concentration in the presence of 100 μM PLP and the absence of Hcys (mixed inhibition constant αKi=26.4 ± 8 μM). (D) Inhibition of hCBS by CH004 as a function of Hcys concentration in the presence of 20 mM Cys and 100 μM PLP (mixed inhibition constant αKi’=7.2 ± 1.6 μM). Each point in the Lineweaver-Burk plots represents the means of triplicate. The αKi or αKi’ values were calculated by using the non-linear fitting method for enzyme kinetics in GraphPad Prism 5. (E) Surface Plasmon Resonance assays analysis of the binding of CH004 to hCBS. Solutions with various concentrations of CH004 (0.097–12.5 µM) were injected into the chamber with a hCBS-coated sensor chip. The change of response units is shown over time. Dissociation constants for CH004 (KD) were calculated by using Biacore evaluation software (Materials and Methods).

hCSE = hCSE (Homo sapiens, UniProt P32929); assay: purified hCSE enzyme assay; set-up: human CBS or hCSE full-length (CBS-FL or CSE) was subcloned into pGEX-KG, pcDNA3 or pCDH vector; GST (N); made in house; host or cells: E. coli BL21
Protocol: Fig. 1 CH004 inhibits the activity of hCBS in the in vitro purified enzyme assays under different assay conditions. a A scheme for the cascade enzymatic reactions catalyzed by CBS or CSE. Cth, cystathionine. b, c Inhibitory effects of CH004 on the activity of hCBS-413 (b) or hCSE (c). The enzyme activities were monitored for various concentrations of CH004 under the standard conditions (50 mM Tris-HCl, pH 8.6; “Materials and Methods” section). The result is shown as percentages of the control (DMSO, 100%). The data are shown as means ± SDS (n = 3). d The dose-dependent inhibition of CH004 on the hCBS-413 activity was measured by the tandem-well-based assay under the standard conditions except using 50 mM Hepes buffer (pH 7.4) instead of 50 mM Tris-HCl (pH 8.6). Means ± SDs (n = 3). e The dose-dependent inhibition of CH004 on the CBS activity measured by methylene blue method. […] After 80 min, the assay was stopped by added 10 μL 10% ZnAC and the generated H2S was quantified by N,N-dimethyl-p-phenylenediamine to give an absorbance at 670 nm (for details, see Materials and Methods section; ref. [53]).
(§1) The IC50 values of CH004 for hCBS-413, hCBS-413 mutants, hCBS-FL, hCSE or hDDC were determined according to the standard assay conditions otherwise indicated.

hCBS Y223F = target: T2, hCBS Y223F (Homo sapiens, UniProt P35520, Y223F); assay: purified hCBS mutant enzyme assay
T2 construct: hCBS-413 (a C-terminal truncated hCBS 1–413); GST (N); made in house; host or cells: E. coli BL21
Protocol: as §1
(§2) Table S2. Inhibitory effects of CH004 on hCBS WT and mutants.

hCBS S147A = target: T3, hCBS S147A (Homo sapiens, UniProt P35520, S147A); assay: purified hCBS mutant enzyme assay
T3 construct: hCBS-413 (a C-terminal truncated hCBS 1–413); GST (N); made in house; host or cells: E. coli BL21
Protocol: as §1, §2

hCBS T146A = target: T4, hCBS T146A (Homo sapiens, UniProt P35520, T146A); assay: purified hCBS mutant enzyme assay
T4 construct: hCBS-413 (a C-terminal truncated hCBS 1–413); GST (N); made in house; host or cells: E. coli BL21
Protocol: as §1, §2

[1] = 150 nM CBS, 4 mM Hcys, 4 mM Cys, Tris-HCl pH 8.6

T4 sequence (P35520 1-413 T146A): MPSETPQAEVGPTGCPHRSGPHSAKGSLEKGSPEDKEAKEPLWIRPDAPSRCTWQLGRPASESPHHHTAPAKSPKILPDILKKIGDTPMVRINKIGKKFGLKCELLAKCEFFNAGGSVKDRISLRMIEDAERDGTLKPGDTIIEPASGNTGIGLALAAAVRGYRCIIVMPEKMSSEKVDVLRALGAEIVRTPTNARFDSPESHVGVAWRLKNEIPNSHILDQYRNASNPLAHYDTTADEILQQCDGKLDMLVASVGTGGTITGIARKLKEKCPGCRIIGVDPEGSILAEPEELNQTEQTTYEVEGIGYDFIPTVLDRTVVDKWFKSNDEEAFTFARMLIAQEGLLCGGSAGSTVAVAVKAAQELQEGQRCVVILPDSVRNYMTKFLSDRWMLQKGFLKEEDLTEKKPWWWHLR
T2 sequence (P35520 1-413 Y223F): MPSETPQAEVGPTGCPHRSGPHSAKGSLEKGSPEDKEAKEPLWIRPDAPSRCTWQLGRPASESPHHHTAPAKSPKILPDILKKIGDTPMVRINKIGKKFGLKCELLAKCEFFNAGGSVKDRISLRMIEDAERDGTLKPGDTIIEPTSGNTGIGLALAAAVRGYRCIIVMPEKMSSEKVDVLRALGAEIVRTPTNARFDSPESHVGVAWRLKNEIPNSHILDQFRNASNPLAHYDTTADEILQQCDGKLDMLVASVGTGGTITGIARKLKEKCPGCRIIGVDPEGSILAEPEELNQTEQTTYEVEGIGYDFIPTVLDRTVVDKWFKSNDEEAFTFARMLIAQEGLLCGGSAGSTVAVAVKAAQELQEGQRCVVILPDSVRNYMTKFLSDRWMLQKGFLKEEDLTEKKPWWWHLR
T3 sequence (P35520 1-413 S147A): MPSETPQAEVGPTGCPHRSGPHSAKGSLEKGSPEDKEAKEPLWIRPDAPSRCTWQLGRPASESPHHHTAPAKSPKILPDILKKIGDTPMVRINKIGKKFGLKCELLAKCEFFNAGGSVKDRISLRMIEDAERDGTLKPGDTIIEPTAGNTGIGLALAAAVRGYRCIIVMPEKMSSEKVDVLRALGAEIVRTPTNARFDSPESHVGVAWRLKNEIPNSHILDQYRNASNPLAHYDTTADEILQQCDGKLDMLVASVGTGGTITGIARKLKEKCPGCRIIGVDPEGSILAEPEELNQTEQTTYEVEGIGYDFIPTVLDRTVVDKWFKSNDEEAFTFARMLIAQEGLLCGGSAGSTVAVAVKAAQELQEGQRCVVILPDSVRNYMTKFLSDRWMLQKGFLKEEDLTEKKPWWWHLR
hCSE, sequence (P32929 whole entry): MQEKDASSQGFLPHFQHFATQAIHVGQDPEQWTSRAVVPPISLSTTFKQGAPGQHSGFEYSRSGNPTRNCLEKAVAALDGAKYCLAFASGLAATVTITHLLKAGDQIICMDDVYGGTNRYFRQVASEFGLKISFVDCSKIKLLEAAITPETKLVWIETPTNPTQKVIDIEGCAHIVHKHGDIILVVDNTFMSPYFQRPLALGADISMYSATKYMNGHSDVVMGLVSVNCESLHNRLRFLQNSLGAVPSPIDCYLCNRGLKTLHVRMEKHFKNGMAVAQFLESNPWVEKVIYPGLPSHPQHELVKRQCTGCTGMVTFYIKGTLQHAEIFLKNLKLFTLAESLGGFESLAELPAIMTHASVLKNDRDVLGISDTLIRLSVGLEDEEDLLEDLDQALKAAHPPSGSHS

Cn1nc(Cc2ccccc2)nc2c(=O)n(C)c(=O)nc1-2 [CH004, 3-benzyl-1,6-dimethylpyrimido[5,4-e][1,2,4]triazine-5,7(1H,6H)-dione]
mode of inhibition toward Cys and Hcys (hCBS): mixed-type inhibition
mode of inhibition toward PLP (hCBS): noncompetitive inhibition
Ki (hCBS; 100 μM PLP, absence of Hcys, read-out: αKi toward Cys (mixed inhibition constant)): ~26.4 µM and 26.4 µM
Ki (hCBS; 20 mM Cys, 100 μM PLP, read-out: αKi’ toward Hcys (mixed inhibition constant)): ~7.2 µM and 7.2 µM
Ki (hCBS; Cys 20 mM and Hcys 10 mM as substrates, read-out: αKi toward PLP (non-competitive inhibition constant)): ~15.2 µM and 15.2 µM
Fold selectivity hCSE vs hCBS-413 (hCSE; IC50 of hCSE / IC50 of hCBS-413): 29.9 fold
IC50 (hCSE; standard conditions, 50 mM Tris-HCl pH 8.6): 29.9 ± 5.6 µM
IC50 fold to WT, Y223F (hCBS Y223F): 3.5
IC50 (hCBS Y223F; [1]): 4.2 ± 1 µM
IC50 fold to WT, S147A (hCBS S147A): 4.9
IC50 (hCBS S147A; [1]): 5.9 ± 0.8 µM
IC50 fold to WT, T146A (hCBS T146A): 4.2
IC50 (hCBS T146A; 2 µM CBS, 4 mM Hcys, 4 mM Cys, Tris-HCl pH 8.6): 5 ± 1.5 µM

Source: PMC6158189, “A pharmacological probe identifies cystathionine β-synthase as a new negative regulator for ferroptosis” (Cell Death & Disease, 2018)
